Among the data in patent US20240366581A1 (Hoffmann-La Roche Inc., priority 2022, published 2024) are IC50 values, retold here.

Holding throughout (format): biochemical
One assay deals with SIK1 (Homo sapiens (Human), UniProt P57059). The experiment in a line: SIK1 enzymatic activity assay, RapidFire mass spectrometry (CHK-peptide phosphorylation). The conditions noted are these: 5 nM SIK1, CHK-peptide, ATP, 30 min pre-incubation, 45 min reaction, RapidFire MS; read-out: SIK1 RF IC50. On the procedure:
(§1) In the presence of SIK2 (resp. SIK1 or SIK3) and ATP the CHK-peptide ([…] with C-terminal arginine amide modification) were phosphorylated at one of the four feasible serine's. Only one phosphorylation is observed under the assay conditions. 60 nl of each compound dilution series (12 point; dilution factor 3, generally 30 μM to 170 pM) in DMSO were transferred by acoustic dispensing to the assay plate and 30 min pre-incubated (ambient temperature) after the addition of 5 μl SIK1 (5 nM) resp. 5 μl SIK2 (0.5 nM) or 7 μl SIK3 (1.5 nM) in assay-buffer (12.5 mM HEPES (pH 7.0), 10 mM magnesium acetate, 0.005% BSA). 10 μM CHK-peptide solution and 5 μl 100 μM ATP for SIK1 & SIK2 resp. 3 μl for SIK3 in assay-buffer were added and incubated ambient for 45 min. 40 μl 0.125% formic acid in water were added to quench the reaction. RapidFire (RF) Mass Spectrometry was utilized for data generation as described below. The multiple charged species (3-5 charges) for the phosphorylated and non-phosphorylated form measured by MRM (Multiple Reaction Monitoring; API5000 or 6500+) or EIC (Extracted Ion Current; QToF) were summed up and the ratio calculated (sum phosphorylated species/sum all species) for data evaluation. Normalization was performed by Genedata software based on the non-inhibition control DMSO and the commercially available SIK inhibitor @ 1 μM YKL-05-099 (CAS number 1936529-65-5). The results of the assay are expressed in half-maximal inhibitory concentrations (IC50s) and are summarized below in Table 1.
(§2) Samples were aspirated by vacuum for max. 600 ms and loaded to C4-cartridge (Agilent; #G9203A) for 3000 ms@1.5 ml/min with 0.1% formic acid in water. Afterwards samples were transferred to the API5000 (API6500+) or QToF mass spectrometer for 4000 ms@1.25 ml/min with 90% acetonitrile; 10% water; 0.007% TFA; 0.093 formic acid. The cartridge was reconditioned for additional 500 ms with 0.1% formic acid in water
(§3) All MS analyses using the following MS-setup in MRM mode: Electrospray positive; Ion Spray Voltage: 4000V; Temperature: 550° C.; Collision Gas: 5; Curtain Gas: 15; Gas1: 40; Gas 2: 42; EP: 10
(§4) All MS analyses using the following MS-setup in Mode MS: Dual AJS Electrospray positive; VCap: 3000V; Drying & Sheath gas: 340° C.@81/min; Nebulizer: 60 psig; Nozzle Voltage: 2000V; Fragmentor: 130V; Skimmer: 35V; Oct1 RF Vpp: 700V; Ref masses on@5spectra/s

Another assay addresses SIK3 (Homo sapiens (Human), UniProt Q9Y2K2). The experiment in a line: SIK3 enzymatic activity assay, RapidFire mass spectrometry (CHK-peptide phosphorylation). The conditions noted are these: 1.5 nM SIK3, CHK-peptide, ATP, 30 min pre-incubation, 45 min reaction, RapidFire MS; read-out: SIK3 RF IC50. On the procedure:
as §1, §2, §3, §4

For the next assay, the target named is SIK2 (Homo sapiens (Human), UniProt Q9H0K1). The experiment in a line: SIK2 enzymatic activity assay, RapidFire mass spectrometry (CHK-peptide phosphorylation). The conditions noted are these: 0.5 nM SIK2, CHK-peptide, ATP, 30 min pre-incubation, 45 min reaction, RapidFire MS; read-out: SIK2 RF IC50. On the procedure:
as §1, §2, §3, §4

Sequence of SIK2 (Q9H0K1 whole entry): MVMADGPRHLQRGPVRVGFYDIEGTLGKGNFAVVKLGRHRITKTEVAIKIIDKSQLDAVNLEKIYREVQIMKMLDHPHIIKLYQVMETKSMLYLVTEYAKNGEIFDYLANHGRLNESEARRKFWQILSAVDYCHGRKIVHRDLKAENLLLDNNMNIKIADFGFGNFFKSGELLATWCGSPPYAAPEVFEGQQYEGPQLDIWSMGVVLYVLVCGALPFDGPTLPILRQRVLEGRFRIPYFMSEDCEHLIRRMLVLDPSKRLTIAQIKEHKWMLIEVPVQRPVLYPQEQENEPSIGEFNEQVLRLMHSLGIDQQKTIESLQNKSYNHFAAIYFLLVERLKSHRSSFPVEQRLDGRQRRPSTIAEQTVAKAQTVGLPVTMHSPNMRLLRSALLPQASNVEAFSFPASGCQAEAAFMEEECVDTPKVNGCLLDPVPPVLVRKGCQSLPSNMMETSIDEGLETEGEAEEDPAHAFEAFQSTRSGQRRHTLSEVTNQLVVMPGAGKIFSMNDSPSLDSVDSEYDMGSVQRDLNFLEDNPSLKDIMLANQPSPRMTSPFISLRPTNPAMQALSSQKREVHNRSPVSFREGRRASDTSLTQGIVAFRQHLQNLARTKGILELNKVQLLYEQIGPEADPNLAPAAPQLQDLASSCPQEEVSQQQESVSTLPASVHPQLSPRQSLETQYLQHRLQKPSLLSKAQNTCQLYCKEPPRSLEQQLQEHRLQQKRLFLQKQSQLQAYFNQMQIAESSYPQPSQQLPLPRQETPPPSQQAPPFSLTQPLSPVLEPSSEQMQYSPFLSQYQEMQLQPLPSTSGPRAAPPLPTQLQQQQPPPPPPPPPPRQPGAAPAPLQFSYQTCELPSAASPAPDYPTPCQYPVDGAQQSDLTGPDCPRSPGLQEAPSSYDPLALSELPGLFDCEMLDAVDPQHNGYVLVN
Sequence of SIK1 (P57059 whole entry): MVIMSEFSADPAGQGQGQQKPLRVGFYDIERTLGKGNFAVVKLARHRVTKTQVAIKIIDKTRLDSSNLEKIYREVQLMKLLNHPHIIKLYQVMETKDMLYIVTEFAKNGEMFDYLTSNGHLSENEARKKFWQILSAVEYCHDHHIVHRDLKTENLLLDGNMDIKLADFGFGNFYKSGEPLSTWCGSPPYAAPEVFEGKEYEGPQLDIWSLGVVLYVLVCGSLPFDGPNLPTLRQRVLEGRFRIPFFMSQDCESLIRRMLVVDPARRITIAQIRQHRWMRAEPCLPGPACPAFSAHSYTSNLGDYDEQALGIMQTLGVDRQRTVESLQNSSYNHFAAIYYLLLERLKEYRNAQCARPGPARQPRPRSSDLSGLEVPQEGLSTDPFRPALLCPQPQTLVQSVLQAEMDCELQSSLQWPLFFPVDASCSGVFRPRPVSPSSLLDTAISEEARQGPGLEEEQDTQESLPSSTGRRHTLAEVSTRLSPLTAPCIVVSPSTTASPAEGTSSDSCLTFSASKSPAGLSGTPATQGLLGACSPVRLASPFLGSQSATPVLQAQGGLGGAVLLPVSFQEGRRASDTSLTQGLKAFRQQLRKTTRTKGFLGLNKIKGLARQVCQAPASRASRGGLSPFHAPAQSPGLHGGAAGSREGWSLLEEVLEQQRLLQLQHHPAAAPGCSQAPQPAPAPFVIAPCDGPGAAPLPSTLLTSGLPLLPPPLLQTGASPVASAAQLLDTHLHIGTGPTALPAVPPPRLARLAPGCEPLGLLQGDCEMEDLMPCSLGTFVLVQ
Sequence of SIK3 (Q9Y2K2 whole entry): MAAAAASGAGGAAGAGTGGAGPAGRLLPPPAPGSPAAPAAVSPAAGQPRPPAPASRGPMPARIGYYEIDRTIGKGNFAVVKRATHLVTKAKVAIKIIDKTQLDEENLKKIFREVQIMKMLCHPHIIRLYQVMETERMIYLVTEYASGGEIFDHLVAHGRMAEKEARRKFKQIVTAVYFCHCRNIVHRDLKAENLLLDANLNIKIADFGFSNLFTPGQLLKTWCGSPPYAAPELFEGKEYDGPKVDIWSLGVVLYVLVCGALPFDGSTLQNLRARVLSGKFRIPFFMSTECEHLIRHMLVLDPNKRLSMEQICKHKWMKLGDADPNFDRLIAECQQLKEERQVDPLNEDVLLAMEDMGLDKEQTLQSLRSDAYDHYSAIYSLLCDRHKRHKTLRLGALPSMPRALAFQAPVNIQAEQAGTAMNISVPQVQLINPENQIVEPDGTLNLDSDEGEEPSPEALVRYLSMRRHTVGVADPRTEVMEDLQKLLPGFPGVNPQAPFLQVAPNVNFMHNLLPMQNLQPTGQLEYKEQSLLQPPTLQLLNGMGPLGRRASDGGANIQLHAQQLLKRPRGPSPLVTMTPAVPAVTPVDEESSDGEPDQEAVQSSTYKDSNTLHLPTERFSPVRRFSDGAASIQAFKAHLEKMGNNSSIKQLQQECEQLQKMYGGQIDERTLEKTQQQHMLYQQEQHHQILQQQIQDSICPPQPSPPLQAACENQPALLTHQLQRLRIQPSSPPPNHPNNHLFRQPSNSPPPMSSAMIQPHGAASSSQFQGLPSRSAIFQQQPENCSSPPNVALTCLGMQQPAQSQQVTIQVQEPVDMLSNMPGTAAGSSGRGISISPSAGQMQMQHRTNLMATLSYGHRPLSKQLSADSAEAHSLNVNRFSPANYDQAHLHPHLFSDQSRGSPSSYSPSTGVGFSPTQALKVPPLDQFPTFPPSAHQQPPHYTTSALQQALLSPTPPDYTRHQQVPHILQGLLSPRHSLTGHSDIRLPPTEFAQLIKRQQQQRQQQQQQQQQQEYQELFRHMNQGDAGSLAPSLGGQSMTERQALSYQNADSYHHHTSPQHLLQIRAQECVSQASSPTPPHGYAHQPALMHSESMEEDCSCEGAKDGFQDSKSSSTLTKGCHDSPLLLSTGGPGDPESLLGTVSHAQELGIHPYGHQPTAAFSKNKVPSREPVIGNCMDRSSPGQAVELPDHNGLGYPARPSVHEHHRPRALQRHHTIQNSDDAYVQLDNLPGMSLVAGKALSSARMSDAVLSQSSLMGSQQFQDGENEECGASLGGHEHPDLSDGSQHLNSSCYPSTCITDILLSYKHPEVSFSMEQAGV

Take `Cc1cc(C#N)nn1-c1nc(-n2cnc3cc(OCCN4CCOCC4)ccc32)ccc1C(N)=O` [Example 22, 2-(3-Cyano-5-methyl-pyrazol-1-yl)-6-[5-(2-morpholinoethoxy)benzimidazol-1-yl]pyridine-3-carboxamide]: the results for the IC50 at SIK1, on SIK3 and at SIK2 were 19800 nM, 12200 nM and 7410 nM, respectively.

Turning to `Cc1ccc(Nc2ccc3c(c2)ncn3-c2ccc(C(N)=O)c(OC(C)C(F)F)n2)nn1` (stereo not drawn) [Example 23, 2-(2,2-Difluoro-1-methyl-ethoxy)-6-[5-[(6-methylpyridazin-3-yl)amino]benzimidazol-1-yl]pyridine-3-carboxamide], the IC50 (usually the midpoint of a concentration-inhibition curve) was found to be 361 nM at SIK1, 4.9 nM at SIK3 and 15.2 nM on SIK2.

Regarding `Cc1ccc(Nc2ccc3ncn(-c4ccc(C(N)=O)c(OC(C)C(F)F)n4)c3c2)nn1` (stereo not drawn) [Example 24], the IC50 at SIK1 was found to be 605 nM; on SIK3 it was 95.7 nM; at SIK2 it was 206 nM.

With `Cc1cc(C#N)nn1-c1nc(-n2cnc3cc(N[C@H]4CNC[C@H]4F)ccc32)ccc1C(N)=O` [Example 25, 2-(3-Cyano-5-methyl-pyrazol-1-yl)-6-[5-[[(3S,4R)-4-fluoropyrrolidin-3-yl]amino]benzimidazol-1-yl]pyridine-3-carboxamide; formic acid], the IC50 at SIK1 worked out at 914 nM; at SIK3 it was 257 nM; on SIK2 it was 171 nM.

Consider `COC(=O)c1ccc(-n2cnc3cc(Nc4ccc(C)nn4)ccc32)nc1-n1nc(OC)cc1C` [Example 26, Methyl 2-(3-methoxy-5-methyl-pyrazol-1-yl)-6-[5-[(6-methylpyridazin-3-yl)amino]benzimidazol-1-yl]pyridine-3-carboxylate], for which the concentration for half-maximal inhibition (IC50) amounted to 17800 nM at SIK1, 49.4 nM on SIK3 and 154 nM at SIK2.

In the case of `CC(=O)c1ccc(-n2cnc3cc(Nc4ccc(C)nn4)ccc32)nc1-n1nc(C#N)cc1C` [Example 27, 1-[3-Acetyl-6-[5-[(6-methylpyridazin-3-yl)amino]benzimidazol-1-yl]-2-pyridyl]-5-methyl-pyrazole-3-carbonitrile], the half-inhibitory concentration (IC50) at SIK1 turned out to be 669 nM; at SIK3, 8.1 nM; at SIK2 it was 6.6 nM.

As for `CC(=O)c1ccc(-n2cnc3ccc(Nc4ccc(C)nn4)cc32)nc1-n1nc(C#N)cc1C` [Example 28, 1-[3-Acetyl-6-[6-[(6-methylpyridazin-3-yl)amino]benzimidazol-1-yl]-2-pyridyl]-5-methyl-pyrazole-3-carbonitrile], the IC50 turned out to be 308 nM on SIK1, 184 nM on SIK3 and 111 nM at SIK2.

Consider `CC(=O)c1ccc(-n2cnc3cc4c(cc32)CCN4)nc1-n1nc(C#N)cc1C` [Example 31, 1-[3-acetyl-6-(6,7-dihydro-5H-pyrrolo[2,3-f]benzimidazol-1-yl)-2-pyridyl]-5-methyl-pyrazole-3-carbonitrile], for which the 50% inhibitory concentration (IC50) at SIK1 turned out to be 13 nM; at SIK3, 1230 nM; on SIK2, 9.1 nM.

On to `Cc1ccc(Nc2ccc3ncn(-c4ccc(C=O)c(N5C[C@H](C#N)C[C@@H]5C)n4)c3c2)nn1` [Example 32, (3R,5S)-1-[3-formyl-6-[6-[(6-methylpyridazin-3-yl)amino]benzimidazol-1-yl]-2-pyridyl]-5-methyl-pyrrolidine-3-carbonitrile], for which the IC50 at SIK1 is 43 nM; at SIK3 it was 988 nM; at SIK2, 19.9 nM.

With `Cc1ccc(Nc2ccc3c(c2)ncn3-c2ccc(C=O)c(N3C[C@H](C#N)C[C@@H]3C)n2)nn1` [Example 33, (3R,5S)-1-[3-formyl-6-[5-[(6-methylpyridazin-3-yl)amino]benzimidazol-1-yl]-2-pyridyl]-5-methyl-pyrrolidine-3-carbonitrile], the IC50 at SIK1 worked out at 76 nM; at SIK3, 562 nM; on SIK2, 95.1 nM.

As to `Cc1ccc(Nc2ccc3c(c2)ncn3-c2ccc(C(=O)C(F)(F)F)c(-n3nc(C#N)cc3C)n2)nn1` [Example 34, 5-methyl-1-[6-[5-[(6-methylpyridazin-3-yl)amino]benzimidazol-1-yl]-3-(2,2,2-trifluoroacetyl)-2-pyridyl]pyrazole-3-carbonitrile], the IC50 on SIK1 was 2330 nM; at SIK3, 31.7 nM; at SIK2 it was 41.4 nM.

Turning to `CC(=O)c1ccc(-n2cnc3cc4c(cc32)C(C)(C)C(=O)N4c2ccc(C)nn2)nc1-n1nc(C#N)cc1C` [Example 35, 1-[3-acetyl-6-[6-keto-7,7-dimethyl-5-(6-methylpyridazin-3-yl)pyrrolo[2,3-f]benzimidazol-1-yl]-2-pyridyl]-5-methyl-pyrazole-3-carbonitrile], the IC50 on SIK1 was 101 nM; on SIK3, 150 nM; on SIK2, 115 nM.

`Cc1ccc(Nc2ccc3c(c2)ncn3-c2ccc(C=O)c(-n3nc(C#N)cc3C)n2)nn1` [Example 36, 1-[3-formyl-6-[5-[(6-methylpyridazin-3-yl)amino]benzimidazol-1-yl]-2-pyridyl]-5-methyl-pyrazole-3-carbonitrile]: the IC50 at SIK1 came out at 274 nM; on SIK3, 0.7 nM; on SIK2, 5.2 nM.

As for `CC(=O)c1ccc(-n2cnc3cc(Nc4cccn(C)c4=O)ccc32)nc1-n1nc(C#N)cc1C` [Example 37, 1-[3-acetyl-6-[5-[(2-keto-1-methyl-3-pyridyl)amino]benzimidazol-1-yl]-2-pyridyl]-5-methyl-pyrazole-3-carbonitrile], the IC50 is greater than 10000 nM at SIK1, 208 nM on SIK3 and 502 nM at SIK2.

For the compound `COc1nn(C)cc1-c1ccc2c(c1)ncn2-c1ccc(C(C)=O)c(-n2nc(C#N)cc2C)n1` [Example 38, 1-[3-acetyl-6-[5-(3-methoxy-1-methyl-pyrazol-4-yl)benzimidazol-1-yl]-2-pyridyl]-5-methyl-pyrazole-3-carbonitrile], the IC50 at SIK1 amounted to 3490 nM; on SIK3, 1790 nM; on SIK2 it was 754 nM.

As to `CC(=O)c1ccc(-n2cnc3cc(Nc4ccc(C5CCCN5)nn4)ccc32)nc1-n1nc(C#N)cc1C` (stereo not drawn) [Example 39, 1-[3-acetyl-6-[5-[(6-pyrrolidin-2-ylpyridazin-3-yl)amino]benzimidazol-1-yl]-2-pyridyl]-5-methyl-pyrazole-3-carbonitrile], the IC50 on SIK1 came out at 6580 nM; on SIK3, 728 nM; at SIK2, 43.7 nM.

`Cc1ccc(Nc2ccc3ncn(-c4ccc(C=O)c(-n5nc(C#N)cc5C)n4)c3c2)nn1` [Example 40, 1-[3-formyl-6-[6-[(6-methylpyridazin-3-yl)amino]benzimidazol-1-yl]-2-pyridyl]-5-methyl-pyrazole-3-carbonitrile]: the IC50 at SIK1 was greater than 30000 nM; on SIK3 it was 8800 nM; on SIK2 it was 536 nM.
